Measured values reported in patent publication US20180319810A1, “SUBSTITUTED BRIDGED UREA ANALOGS AS SIRTUIN MODULATORS” (GlaxoSmithKline Intellectual Property (No.2) Limited, priority 2014, published 2018).

target: T1, SIRT1 (Homo sapiens, UniProt Q96EB6); assay: Trp mass spectrometry assay of SIRT1 activation; type: biochemical; conditions: Trp peptide Ac-R-H-K-K(Ac)-W-NH2 0.5 μM, 120 μM βNAD+, 10 nM SIRT1, 25 min, 25° C.
T1 sequence (Q96EB6 1-747): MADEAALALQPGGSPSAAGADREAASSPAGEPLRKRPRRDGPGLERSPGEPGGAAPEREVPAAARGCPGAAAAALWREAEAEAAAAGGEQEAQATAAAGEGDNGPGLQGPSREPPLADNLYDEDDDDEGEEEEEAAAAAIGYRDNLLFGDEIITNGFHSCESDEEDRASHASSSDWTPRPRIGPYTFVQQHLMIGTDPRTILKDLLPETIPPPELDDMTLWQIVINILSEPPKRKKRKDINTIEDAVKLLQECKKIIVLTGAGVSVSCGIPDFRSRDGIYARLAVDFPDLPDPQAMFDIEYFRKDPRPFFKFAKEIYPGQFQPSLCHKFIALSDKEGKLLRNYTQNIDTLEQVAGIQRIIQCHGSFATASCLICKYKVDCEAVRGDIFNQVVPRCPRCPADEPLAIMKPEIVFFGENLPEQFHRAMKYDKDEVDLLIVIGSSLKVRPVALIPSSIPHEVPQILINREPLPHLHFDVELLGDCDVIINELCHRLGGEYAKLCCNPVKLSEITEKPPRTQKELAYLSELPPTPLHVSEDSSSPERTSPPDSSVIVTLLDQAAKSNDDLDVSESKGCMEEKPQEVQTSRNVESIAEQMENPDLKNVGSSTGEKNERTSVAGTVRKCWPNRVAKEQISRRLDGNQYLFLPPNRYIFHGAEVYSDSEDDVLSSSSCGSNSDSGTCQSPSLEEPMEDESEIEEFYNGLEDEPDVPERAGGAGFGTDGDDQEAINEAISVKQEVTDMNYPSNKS

SMILES	TRP Activity (EC1.5, concentration of compound required to increase SIRT1 activity by 50% over control)	TRP MAX RESP (percent maximum fold activation relative to control)
Cc1nc(-c2cccc(C(F)(F)F)c2)nc2c1N1CC[C@@H](C1)N2C(=O)Nc1cncc(OC[C@@H](O)CO)c1 [Example 46, (8S)—N-(5-((S)-2,3-dihydroxypropoxy)pyridin-3-yl)-4-methyl-2-(3-(trifluoromethyl)phenyl)-7,8-dihydro-5,8-methanopyrimido[4,5-b][1,4]diazepine-9(6H)-carboxamide]	B (EC1.5 1-25 μM)	A (Fold activation ≥150%)
O=C(Nc1ccnc(O[C@H]2CCOC2)n1)N1c2nc(-c3cccc(C(F)(F)F)c3)ncc2N2CC[C@H]1C2 [Example 25, (8S)—N-(2-(((S)-tetrahydrofuran-3-yl)oxy)pyrimidin-4-yl)-2-(3-(trifluoro-methyl)phenyl)-7,8-dihydro-5,8-methanopyrimido[4,5-b][1,4]diazepine-9(6H)-carboxamide]	B (EC1.5 1-25 μM)	A (Fold activation ≥150%)
C[C@@H](NC(=O)c1ncc2c(n1)N(C(=O)Nc1nccc(OC[C@@H](O)CO)n1)[C@H]1CCCN2C1)C(F)(F)F [Example 76, (9S)—N10-(4-((S)-2,3-dihydroxypropoxy)pyrimidin-2-yl)-N2-((R)-1,1,1-trifluoropropan-2-yl)-8,9-dihydro-6H-5,9-methanopyrimido[4,5-b][1,4]diazocine-2,10(7H)-dicarboxamide]	B (EC1.5 1-25 μM)	A (Fold activation ≥150%)
CCNC(=O)N1c2nc(-c3cccc(C(F)(F)F)c3)ncc2N2CC[C@H]1C2.Cl [Example 21, (8S)—N-ethyl-2-(3-(trifluoromethyl)phenyl)-7,8-dihydro-5,8-methano pyrimido[4,5-b][1,4]diazepine-9(6H)-carboxamide, Hydrochloride]	A (EC1.5<1 μM)	A (Fold activation ≥150%)
Cc1ccc2c(NC(=O)N3c4nc(C(=O)N[C@H](C)C(F)(F)F)nc(C)c4N4CCC[C@H]3C4)n[nH]c2n1 [Example 73, (9S)-4-methyl-N10-(6-methyl-1H-pyrazolo[3,4-b]pyridin-3-yl)-N2-((R)-1,1,1-trifluoropropan-2-yl)-8,9-dihydro-6H-5,9-methanopyrimido[4,5-b][1,4]diazocine-2,10(7H)-dicarboxamide]	A (EC1.5<1 μM)	A (Fold activation ≥150%)
O=C(Nc1ccccn1)N1c2nc(-c3cccc(C(F)(F)F)c3)ncc2N2CC[C@H]1C2 [Example 3, (8S)—N-(pyridin-2-yl)-2-(3-(trifluoromethyl)phenyl)-7,8-dihydro-5,8-methano pyrimido[4,5-b][1,4]diazepine-9(6H)-carboxamide]	–	A (Fold activation ≥150%)
Cc1nc(C(=O)N[C@H](C)C(F)(F)F)nc2c1N1CCC[C@@H](C1)N2C(=O)Nc1ccc(OC[C@@H](O)CO)nn1 [Example 74, (9S)—N10-(6-((S)-2,3-dihydroxypropoxy)pyridazin-3-yl)-4-methyl-N2-((R)-1,1,1-trifluoropropan-2-yl)-8,9-dihydro-6H-5,9-methanopyrimido[4,5-b][1,4]diazocine-2,10(7H)-dicarboxamide]	B (EC1.5 1-25 μM)	A (Fold activation ≥150%)
